Measured values published in paper PMC6271513, “Design and Synthesis of Chalcone Derivatives as Inhibitors of the Ferredoxin — Ferredoxin-NADP^+ Reductase Interaction of Plasmodium falciparum: Pursuing New Antimalarial Agents” (Molecules, 2014).

Molecular target: T1, PfFd-PfFNR (Plasmodium falciparum, UniProt C6KT68+Q8IED5)
T1 construct: gene FNR; recombinant PfFNR (E. coli TG1 pTrc99A) and PfFd (E. coli JM105 pTrc99A), purified; PfFd 2Fe-2S, PfFNR flavoprotein
Test: cytochrome c reduction at […] nm, FNR-Fd electron transfer
Format: biochemical

T1 sequence (C6KT68 56-371): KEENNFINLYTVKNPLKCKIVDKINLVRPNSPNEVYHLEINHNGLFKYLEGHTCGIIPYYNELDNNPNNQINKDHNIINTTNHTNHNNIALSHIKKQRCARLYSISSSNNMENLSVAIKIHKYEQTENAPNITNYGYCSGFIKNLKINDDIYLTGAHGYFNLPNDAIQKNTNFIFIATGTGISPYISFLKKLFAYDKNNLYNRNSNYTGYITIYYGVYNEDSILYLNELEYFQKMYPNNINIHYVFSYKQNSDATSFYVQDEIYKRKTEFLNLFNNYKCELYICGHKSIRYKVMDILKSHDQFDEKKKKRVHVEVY
T1 sequence (Q8IED5 97-194 limits assumed): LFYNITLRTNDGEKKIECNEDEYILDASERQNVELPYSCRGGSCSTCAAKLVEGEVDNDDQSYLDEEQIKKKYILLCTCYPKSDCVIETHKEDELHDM

Q: Which inhibition at 100 µM does the source give for `COc1ccccc1/C=C/C(=O)c1ccc(N)cc1` [compound 1, (E)-1-(4-Aminophenyl)-3-(2-methoxyphenyl)prop-2-en-1-one] here?
A: 15.8%

Q: With `COc1cccc(/C=C/C(=O)c2ccc(N)cc2)c1` [compound 2, (E)-1-(4-Aminophenyl)-3-(3-methoxyphenyl)prop-2-en-1-one] as the compound, how does the inhibition at 100 µM read?
A: 22.4%

Q: For `COc1cccc(/C=C/C(=O)c2ccc(N)cc2)c1OC` [compound 4, (E)-1-(4-Aminophenyl)-3-(2,3-dimethoxyphenyl)prop-2-en-1-one], which inhibition at 100 µM is on record?
A: 31.6%

Q: Which inhibition at 100 µM does the source give for `COc1ccc(/C=C/C(=O)c2ccc(N)cc2)c(OC)c1` [compound 5, (E)-1-(4-Aminophenyl)-3-(2,4-dimethoxyphenyl)prop-2-en-1-one] here?
A: 38.2%

Q: With `COc1ccc(OC)c(/C=C/C(=O)c2ccc(N)cc2)c1` [compound 6, (E)-1-(4-Aminophenyl)-3-(2,5-dimethoxyphenyl)prop-2-en-1-one] as the compound, how does the inhibition at 100 µM read?
A: -14.1%

Q: For `Nc1ccc(C(=O)/C=C/c2ccccc2)cc1` [compound 7, (E)-1-(4-Aminophenyl)-3-phenylprop-2-en-1-one], which inhibition at 100 µM is on record?
A: 10.9%

Q: For `COc1ccccc1/C=C/C(=O)c1ccccc1` [compound 8, (E)-3-(2-Methoxyphenyl)-1-phenylprop-2-en-1-one], which inhibition at 100 µM is on record?
A: -10.3%

Q: Which inhibition at 100 µM does the source give for `COc1cccc(/C=C/C(=O)c2ccccc2)c1` [compound 9, (E)-3-(3-Methoxyphenyl)-1-phenylprop-2-en-1-one] here?
A: 0%

Q: How did the inhibition at 100 µM turn out when `COc1ccc(/C=C/C(=O)c2ccccc2)cc1` [compound 10, (E)-3-(4-Methoxyphenyl)-1-phenylprop-2-en-1-one] was run?
A: 4.69%

Q: `COc1cccc(/C=C/C(=O)c2ccccc2)c1OC` [compound 11, (E)-3-(2,3-Dimethoxyphenyl)-1-phenylprop-2-en-1-one] was tested. Which inhibition at 100 µM did it give?
A: -5.88%

Q: `COc1ccc(/C=C/C(=O)c2ccccc2)c(OC)c1` [compound 12, (E)-3-(2,4-Dimethoxyphenyl)-1-phenylprop-2-en-1-one] was tested. Which inhibition at 100 µM did it give?
A: 6.25%

Q: How did the inhibition at 100 µM turn out when `COc1ccc(OC)c(/C=C/C(=O)c2ccccc2)c1` [compound 13, (E)-3-(2,5-Dimethoxyphenyl)-1-phenylprop-2-en-1-one] was run?
A: 5.88%

Q: Which inhibition at 100 µM does the source give for `COc1ccc(/C=C/C(=O)c2ccc(Br)cc2)cc1` [compound 14, (E)-1-(4-Bromophenyl)-3-(4-methoxyphenyl)prop-2-en-1-one] here?
A: 7.35%

Q: With `COc1ccc(/C=C/C(=O)c2ccc(Br)cc2)c(OC)c1` [compound 15, (E)-1-(4-Bromophenyl)-3-(2,4-dimethoxyphenyl)prop-2-en-1-one] as the compound, how does the inhibition at 100 µM read?
A: 26.5%

Q: For `COc1ccc(OC)c(/C=C/C(=O)c2ccc(Br)cc2)c1` [compound 16, (E)-1-(4-Bromophenyl)-3-(2,5-dimethoxyphenyl)prop-2-en-1-one], which inhibition at 100 µM is on record?
A: 11.8%

Q: How did the inhibition at 100 µM turn out when `O=C(/C=C/c1ccccc1)c1ccccc1` [compound 17, (E)-1,3-diphenyl-2-propen-1-one] was run?
A: 22.1%
